Data from patent USRE48461E1, “Modulation of androgen receptor expression” (Ionis Pharmaceuticals, Inc., priority 2012, dated 2021).
Oligonucleotides are written 5' to 3', each unit as a sugar letter and its base; * is a phosphorothioate linkage, no mark a phosphodiester; rarer units and linkages stand in square brackets, end groups in braces. Plain capitals give the bases only. k = constrained ethyl (cEt); [5mC] = 5-methylcytosine; d = 2'-deoxy (DNA)

Key:
AR mRNA [1] = experiment: Antisense inhibition of human AR in HuVEC cells, single concentration (electroporation, qRT-PCR RTS3559); type: cell-based
In short: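 HuVEC cells electroporated with antisense oligonucleotides at a single concentration. AR mRNA quantified by qRT-PCR using human primer-probe set RTS3559 and normalised to total RNA content by RIBOGREEN.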

AR mRNA [2] = experiment: Dose-dependent antisense inhibition of human AR in HuVEC cells (electroporation, qRT-PCR RTS3559, IC50); type: cell-based; details: HuVEC
In short: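 HuVEC cells dosed with antisense oligonucleotides by electroporation and treated approximately 16 hours. AR mRNA quantified by real-time qPCR with primer probe set RTS3559 and normalised to total RNA by RIBOGREEN; IC50 from dose-response.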

[3] = Table 34, electroporation, approximately 16 hours
[4] = Table 30, electroporation, approximately 16 hours
[5] = Table 33, electroporation, approximately 16 hours
[6] = Table 31, electroporation, approximately 16 hours
[7] = Table 36, electroporation, approximately 16 hours

For “584069 (k[5mC]*kA*kG*dA*dG*dT*d[5mC]*dA*dT*d[5mC]*d[5mC]*d[5mC]*dT*kG*k[5mC]*kT; antisense) [compound 584069]”, the “% inhibition” value (AR mRNA [1]; Table 23, 500 nM oligonucleotide, electroporation, approximately 24 hours, relative to untreated control) was 36%, the “percent inhibition of AR, 46.9 nM” value (AR mRNA [2]; [3]) was 18% and the “percent inhibition of AR, 187.5 nM” value (AR mRNA [2]; [3]) was 40%. For the same substance, the “percent inhibition of AR, 750.0 nM” value (AR mRNA [2]; [3]) was 63%, the “percent inhibition of AR, 3000.0 nM” value (AR mRNA [2]; [3]) was 82% and the IC50 (AR mRNA [2]; [3]) was 300 nM.
With “549347 (k[5mC]*kT*kT*d[5mC]*dG*d[5mC]*dG*d[5mC]*dA*d[5mC]*dG*d[5mC]*dT*k[5mC]*kT*kG; antisense) [compound 549347]” the “% inhibition” value (AR mRNA [1]; 500 nM ASO, electroporation, ~24 h, Table 1) was 84%, the “percent inhibition of AR” value (AR mRNA [2]; 55.6 nM, ~16 h, Table 4) was 15% and the “percent inhibition of AR” value (AR mRNA [2]; 166.7 nM, ~16 h, Table 4) was 37%. For the same substance, the “percent inhibition of AR” value (AR mRNA [2]; 500.0 nM, ~16 h, Table 4) was 62%, the “percent inhibition of AR” value (AR mRNA [2]; 1500.0 nM, ~16 h, Table 4) was 71% and the IC50 (AR mRNA [2]; ~16 h, Table 4) was 357 nM.
For “583709 (antisense kG*k[5mC]*kT*dT*dG*dG*d[5mC]*dT*dG*dA*dA*dT*d[5mC]*kT*kT*k[5mC]) [compound 583709]”, the “% inhibition” value (AR mRNA [1]; 500 nM ASO, ~24 h, Table 18) was 39%, the “percent inhibition of AR, 46.9 nM” value (AR mRNA [2]; [4]) was 8% and the “percent inhibition of AR, 187.5 nM” value (AR mRNA [2]; [4]) was 50%. For the same substance, the “percent inhibition of AR, 750.0 nM” value (AR mRNA [2]; [4]) was 70%, the “percent inhibition of AR, 3000.0 nM” value (AR mRNA [2]; [4]) was 84% and the IC50 (AR mRNA [2]; [4]) was 290 nM.
For “583843 (kG*kT*kA*d[5mC]*dA*dT*dG*d[5mC]*dA*dA*dT*d[5mC]*d[5mC]*k[5mC]*k[5mC]*k[5mC]; antisense) [compound 583843]”, the “% inhibition” value (AR mRNA [1]; Table 20, 500 nM oligonucleotide, electroporation, approximately 24 hours, relative to untreated control) was 35%, the “percent inhibition of AR, 46.9 nM” value (AR mRNA [2]; [5]) was 22% and the “percent inhibition of AR, 187.5 nM” value (AR mRNA [2]; [5]) was 40%. The “percent inhibition of AR, 750.0 nM” value (AR mRNA [2]; [5]) was 67%, the “percent inhibition of AR, 3000.0 nM” value (AR mRNA [2]; [5]) was 85% and the IC50 (AR mRNA [2]; [5]) was 300 nM.
In the case of “583637 (antisense kA*kT*k[5mC]*dT*d[5mC]*dT*dG*dG*d[5mC]*dT*d[5mC]*d[5mC]*dG*k[5mC]*kA*k[5mC]) [compound 583637]”, the “% inhibition” value (AR mRNA [1]; 500 nM ASO, ~24 h, Table 17) is reported as 43%, the “percent inhibition of AR, 46.9 nM” value (AR mRNA [2]; [4]) is reported as 22% and the “percent inhibition of AR, 187.5 nM” value (AR mRNA [2]; [4]) is reported as 32%. The “percent inhibition of AR, 750.0 nM” value (AR mRNA [2]; [4]) was 59%, the “percent inhibition of AR, 3000.0 nM” value (AR mRNA [2]; [4]) was 75% and the IC50 (AR mRNA [2]; [4]) was 450 nM.
With “583746 (antisense kT*kG*k[5mC]*dG*d[5mC]*dT*d[5mC]*dG*d[5mC]*dG*dG*d[5mC]*d[5mC]*kT*k[5mC]*kT) [compound 583746]” the “% inhibition” value (AR mRNA [1]; 500 nM ASO, ~24 h, Table 18) was 32%, the “percent inhibition of AR, 46.9 nM” value (AR mRNA [2]; [6]) was 24% and the “percent inhibition of AR, 187.5 nM” value (AR mRNA [2]; [6]) was 44%. The “percent inhibition of AR, 750.0 nM” value (AR mRNA [2]; [6]) was 65%, the “percent inhibition of AR, 3000.0 nM” value (AR mRNA [2]; [6]) was 67% and the IC50 (AR mRNA [2]; [6]) was 350 nM.
For “583689 (antisense kA*kT*kG*d[5mC]*dG*dG*dT*dA*dG*dT*d[5mC]*dG*d[5mC]*kT*kG*k[5mC]) [compound 583689]”, the “% inhibition” value (AR mRNA [1]; 500 nM ASO, ~24 h, Table 18) was 39%, the “percent inhibition of AR, 46.9 nM” value (AR mRNA [2]; [4]) was 20% and the “percent inhibition of AR, 187.5 nM” value (AR mRNA [2]; [4]) was 34%. The “percent inhibition of AR, 750.0 nM” value (AR mRNA [2]; [4]) was 62%, the “percent inhibition of AR, 3000.0 nM” value (AR mRNA [2]; [4]) was 74% and the IC50 (AR mRNA [2]; [4]) was 440 nM.
With “584329 (kG*kG*kT*dT*dA*dT*dG*dG*dT*dT*d[5mC]*dT*dG*kT*k[5mC]*kT; antisense) [compound 584329]” the “% inhibition” value (AR mRNA [1]; 1,000 nM ASO, ~24 h, Table 26) was 58%, the “percent inhibition of AR, 46.9 nM” value (AR mRNA [2]; [7]) was 0% and the “percent inhibition of AR, 187.5 nM” value (AR mRNA [2]; [7]) was 17%. The “percent inhibition of AR, 750.0 nM” value (AR mRNA [2]; [7]) was 67%, the “percent inhibition of AR, 3000.0 nM” value (AR mRNA [2]; [7]) was 86% and the IC50 (AR mRNA [2]; [7]) was 460 nM.
